Laboratory results: US20110044938A1 (NYCOMED GMBH, priority 2006, published 2011)

How the values were obtained:
[1] = test system: RKO (RKOp27) human colon adenocarcinoma cells; assay: Alamar Blue cell viability assay, anti-proliferative/cytotoxic activity on proliferating RKO subclones; assay type: cell-based; conditions: RKOp27, 72 h, RKO p27 uninduced (proliferating) cells, value = class bound given in Table A, read-out: −logIC50 RKO p27 uninduced (proliferating) (converted)
In short: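 Alamar Blue fluorescence (ex 544, em 590 nm) after 72 h compound exposure at 37 °C, 5% CO2, normalised to untreated controls set at 100%. Cells were seeded at 5000 per well and dosed 24 h later with serial semi-logarithmic dilutions in 10% FCS DMEM, four replicates each. −log IC50 [mol/l] was derived from concentration-effect curves.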

[2] = test system: subclones of RKO colon adenocarcinoma cells (RKOp27 or RKOp21) arrested by Ponasterone A; assay: Alamar Blue cell viability assay, cell cycle specific mode of action: cells arrested by ectopic p27Kip1 induced by Ponasterone A versus proliferating cells; assay type: cell-based; conditions: Homo sapiens, RKO p27 induced (arrested) cells, 10 μM Ponasterone A, 72 hours, value = class bound given in Table A, read-out: −logIC50 RKO p27 induced (arrested) (converted)
In short: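 Viability of proliferating versus Ponasterone A (10 μM)-arrested RKOp27/RKOp21 cells after 72 h compound exposure at 37° C, in quadruplicate. Read-out is Alamar Blue fluorescence (544/590 nm) normalised to untreated cells = 100%; values as −log IC50.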

SMILES | IC50 [1] [µM] | IC50 [2] [µM]
CCNC(=O)OCC1CCc2c(sc(NC(=O)CCc3cccc(OC)c3)c2C#N)C1 (stereo not shown) [Example 252, Ethyl-carbamic acid 3-cyano-2-[3-(3-methoxy-phenyl)-propanoylamino]-4,5,6,7-tetrahydro-benzo[b]thiophen-6-ylmethyl ester] | ≤ 0.501 | ≥ 100
COc1cccc(CCC(=O)Nc2sc3c(c2C#N)CCC(COC(=O)NC2CC2)C3)c1 (stereo not shown) [Example 253, Cyclopropyl-carbamic acid 3-cyano-2-[3-(3-methoxy-phenyl)-propanoylamino]-4,5,6,7-tetrahydro-benzo[b]thiophen-6-ylmethyl ester] | ≤ 0.501 | ≥ 100
CCOc1ccccc1CCC(=O)Nc1sc2c(c1C#N)CCC(OC(=O)NCc1csc(C)n1)C2 (stereo not shown) [Example 254, (2-Methyl-thiazol-4-ylmethyl)-carbamic acid 3-cyano-2-[3-(2-ethoxy-phenyl)-propanoylamino]-4,5,6,7-tetrahydro-benzo[b]thiophen-6-yl ester] | ≤ 0.501 | ≥ 100
COC(=O)OCC1CCc2c(sc(NC(=O)CCc3cccc(OC)c3)c2C#N)C1 (stereo not shown) [Example 255, Carbonic acid 3-cyano-2-[3-(3-methoxy-phenyl)-propanoylamino]-4,5,6,7-tetrahydro-benzo[b]thiophen-6-ylmethyl ester methyl ester] | 0.501 to 2 | ≥ 100
Cc1cc(CNC(=O)OCC2CCc3c(sc(NC(=O)CCc4cccnc4)c3C#N)C2)no1 (stereo not shown) [Example 256, (5-Methyl-isoxazol-3-ylmethyl)-carbamic acid 3-cyano-2-(3-pyridin-3-yl-propanoylamino)-4,5,6,7-tetrahydro-benzo[b]thiophen-6-ylmethyl ester] | 0.501 to 2 | ≥ 100
Cc1cc(CNC(=O)OCC2CCc3c(sc(NC(=O)CCc4cccnc4)c3C#N)C2)on1 (stereo not shown) [Example 257, (3-Methyl-isoxazol-5-ylmethyl)-carbamic acid 3-cyano-2-(3-pyridin-3-yl-propanoylamino)-4,5,6,7-tetrahydro-benzo[b]thiophen-6-ylmethyl ester] | 0.501 to 2 | ≥ 100
N#Cc1c(NC(=O)CCc2cccnc2)sc2c1CCC(COC(=O)N1CCCC1)C2 (stereo not shown) [Example 258, Pyrrolidine-1-carboxylic acid 3-cyano-2-(3-pyridin-3-yl-propanoylamino)-4,5,6,7-tetrahydro-benzo[b]thiophen-6-ylmethyl ester] | 0.501 to 2 | ≥ 100
COc1cccc(CCC(=O)Nc2sc3c(c2C#N)CCC(OC(=O)NCc2cccnc2)C3)c1 (stereo not shown) [Example 259, Pyridin-3-ylmethyl-carbamic acid 3-cyano-2-[3-(3-methoxy-phenyl)-propanoylamino]-4,5,6,7-tetrahydro-benzo[b]thiophen-6-yl ester] | ≤ 0.501 | ≥ 100
COc1cccc(CCC(=O)Nc2sc3c(c2C#N)CCC(OC(=O)NCc2nccn2C)C3)c1 (stereo not shown) [Example 261, (1-Methyl-1H-imidazol-2-ylmethyl)-carbamic acid 3-cyano-2-[3-(3-methoxy-phenyl)-propanoylamino]-4,5,6,7-tetrahydro-benzo[b]thiophen-6-yl ester] | ≤ 0.501 | ≥ 100
COc1cccc(CCC(=O)Nc2sc3c(c2C#N)CCC(COC(=O)OCc2nccs2)C3)c1 (stereo not shown) [Example 262, Carbonic acid 3-cyano-2-[3-(3-methoxy-phenyl)-propanoylamino]-4,5,6,7-tetrahydro-benzo[b]thiophen-6-ylmethyl ester thiazol-2-ylmethyl ester] | 0.501 to 2 | ≥ 50.1
COc1cccc(CCC(=O)Nc2sc3c(c2C#N)CCC(OC(=O)NCCn2ccnc2)C3)c1 (stereo not shown) [Example 263, (2-Imidazol-1-yl-ethyl)-carbamic acid 3-cyano-2-[3-(3-methoxy-phenyl)-propanoylamino]-4,5,6,7-tetrahydro-benzo[b]thiophen-6-yl ester] | ≤ 0.501 | ≥ 50.1
COc1cccc(CCC(=O)Nc2sc3c(c2C#N)CCC(OC(=O)Nc2cccnc2)C3)c1 (stereo not shown) [Example 264, Pyridin-3-yl-carbamic acid 3-cyano-2-[3-(3-methoxy-phenyl)-propanoylamino]-4,5,6,7-tetrahydro-benzo[b]thiophen-6-yl ester] | 0.501 to 2 | ≥ 50.1
COc1cccc(CCC(=O)Nc2sc3c(c2C#N)CCC(OC(=O)NCc2cncn2C)C3)c1 (stereo not shown) [Example 265, (3-Methyl-3H-imidazol-4-ylmethyl)-carbamic acid 3-cyano-2-[3-(3-methoxy-phenyl)-propanoylamino]-4,5,6,7-tetrahydro-benzo[b]thiophen-6-yl ester] | ≤ 0.501 | ≥ 50.1
COc1cccc(CCC(=O)Nc2sc3c(c2C#N)CCC(OC(=O)OCc2cncs2)C3)c1 (stereo not shown) [Example 266, Carbonic acid 3-cyano-2-[3-(3-methoxy-phenyl)-propanoylamino]-4,5,6,7-tetrahydro-benzo[b]thiophen-6-yl ester thiazol-5-ylmethyl ester] | 0.501 to 2 | ≥ 50.1
CC(CC(=O)Nc1sc2c(c1C#N)CCC(OC(=O)NCC1CCOCC1)C2)c1ccccc1 (stereo not shown) [Example 267, (Tetrahydro-pyran-4-ylmethyl)-carbamic acid 3-cyano-2-(3-phenyl-butanoylamino)-4,5,6,7-tetrahydro-benzo[b]thiophen-6-yl ester] | ≤ 0.501 | ≥ 50.1
COc1cccc(C(C)CC(=O)Nc2sc3c(c2C#N)CCC(OC(=O)NCc2cccnc2)C3)c1 (stereo not shown) [Example 268, Pyridin-3-ylmethyl-carbamic acid 3-cyano-2-[3-(3-methoxy-phenyl)-butanoylamino]-4,5,6,7-tetrahydro-benzo[b]thiophen-6-yl ester] | 0.501 to 2 | ≥ 100
COc1cccc(C(C)CC(=O)Nc2sc3c(c2C#N)CCC(OC(=O)NCc2ccncc2)C3)c1 (stereo not shown) [Example 269, Pyridin-4-ylmethyl-carbamic acid 3-cyano-2-[3-(3-methoxy-phenyl)-butanoylamino]-4,5,6,7-tetrahydro-benzo[b]thiophen-6-yl ester] | 0.501 to 2 | ≥ 100
COc1cccc(C(C)CC(=O)Nc2sc3c(c2C#N)CCC(OC(=O)NCC2CCOCC2)C3)c1 (stereo not shown) [Example 270, (Tetrahydro-pyran-4-ylmethyl)-carbamic acid 3-cyano-2-[3-(3-methoxy-phenyl)-butanoyl-amino]-4,5,6,7-tetrahydro-benzo[b]thiophen-6-yl ester] | 0.501 to 2 | ≥ 100
COc1cccc(C(C)CC(=O)Nc2sc3c(c2C#N)CCC(OC(=O)NC2CCOCC2)C3)c1 (stereo not shown) [Example 271, (Tetrahydro-pyran-4-yl)-carbamic acid 3-cyano-2-[3-(3-methoxy-phenyl)-butanoylamino]-4,5,6,7-tetrahydro-benzo[b] thiophen-6-yl ester] | 0.501 to 2 | ≥ 100
COc1cccc(C(C)CC(=O)Nc2sc3c(c2C#N)CCC(OC(=O)NCc2cncn2C)C3)c1 (stereo not shown) [Example 272, (3-Methyl-3H-imidazol-4-ylmethyl)-carbamic acid 3-cyano-2-[3-(3-methoxy-phenyl)-butanoylamino]-4,5,6,7-tetrahydro-benzo[b]thiophen-6-yl ester] | 0.501 to 2 | ≥ 100
COc1cccc(C(C)CC(=O)Nc2sc3c(c2C#N)CCC(OC(=O)NCc2cc(C)nn2C)C3)c1 (stereo not shown) [Example 273, (2,5-Dimethyl-2H-pyrazol-3-ylmethyl)-carbamic acid 3-cyano-2-[3-(3-methoxy-phenyl)-butanoylamino]-4,5,6,7-tetrahydro-benzo[b] thiophen-6-yl ester] | ≤ 0.501 | ≥ 100
COc1cccc(C(C)CC(=O)Nc2sc3c(c2C#N)CCC(OC(=O)NCc2cnn(C)c2)C3)c1 (stereo not shown) [Example 274, (1-Methyl-1H-pyrazol-4-ylmethyl)-carbamic acid 3-cyano-2-[3-(3-methoxy-phenyl)-butanoylamino]-4,5,6,7-tetrahydro-benzo[b] thiophen-6-yl ester] | 0.501 to 2 | ≥ 100
COc1cccc(C(C)CC(=O)Nc2sc3c(c2C#N)CCC(OC(=O)NCc2cn(C)nc2C)C3)c1 (stereo not shown) [Example 276, (1,3-Dimethyl-1H-pyrazol-4-ylmethyl)-carbamic acid 3-cyano-2-[3-(3-methoxy-phenyl)-butanoylamino]-4,5,6,7-tetrahydro-benzo[b]thiophen-6-yl ester] | ≤ 0.501 | ≥ 100
COc1cccc(C(C)CC(=O)Nc2sc3c(c2C#N)CCC(OC(=O)NCc2ccnn2C)C3)c1 (stereo not shown) [Example 277, (2-Methyl-2H-pyrazol-3-ylmethyl)-carbamic acid 3-cyano-2-[3-(3-methoxy-phenyl)-butanoylamino]-4,5,6,7-tetrahydro-benzo[b] thiophen-6-yl ester] | ≤ 0.501 | ≥ 100
CCNC(=O)OCC1CCc2c(sc(NC(=O)CC(C)c3cccnc3)c2C#N)C1 (stereo not shown) [Example 278, Ethyl-carbamic acid 3-cyano-2-(3-pyridin-3-yl-butanoylamino)-4,5,6,7-tetrahydro-benzo[b] thiophen-6-ylmethyl ester] | 0.501 to 2 | ≥ 100
COc1cccc(C(C)CC(=O)Nc2sc3c(c2C#N)CCC(OC(=O)NCCn2ccnc2)C3)c1 (stereo not shown) [Example 280, (2-Imidazol-1-yl-ethyl)-carbamic acid 3-cyano-2-[3-(3-methoxy-phenyl)-butanoylamino]-4,5,6,7-tetrahydro-benzo[b] thiophen-6-yl ester] | 0.501 to 2 | ≥ 50.1
